Common to all, as to experiment: growth of human tumour cells (NCI), 48 h
Test [1] has as its system BT-549 breast.
For test [2], the system named is HCT-116 colon.
Test [3] relates to HOP-62 NSCLC.
For test [4], the system named is NCI-H460 lung.
In test [5] the test system is NCI/ADR-RES ovarian.
Test [6] relates to OVCAR-5 ovarian.
Test [7] concerns SF-539 CNS.
The subject of test [8] is SK-MEL-2 melanoma.
The subject of test [9] is SNB-75 CNS.
For test [10], the system named is U251 CNS.

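Assay format: 96-well plates, 48-hour exposure. Abbreviation: GI50, concentration required for 50% inhibition of growth. TGI is the concentration that stops growth completely.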 Some results are limits rather than exact numbers.

As for `CC/C=C\C/C=C\C[C@H](O)C/C=C1/C(=O)C=C[C@@H]1C/C=C\CCCC(=O)O`, the GI50 in test [1] was 2.96 µM; in test [2], 2.08 µM; in test [3], 2.77 µM; in [4], 3.84 µM; in test [5] it was 3.24 µM; in test [6] it was 7.22 µM. For the same compound, the GI50 is 3.85 µM in test [7], 3.33 µM in test [8], 10.4 µM in [9] and 3.54 µM in test [10]. In addition, the TGI in [1] was 9.1 µM; in test [2] it was 4.5 µM; in test [3], 7.4 µM; in test [4], > 100 µM; in test [5], > 100 µM; in test [6] it was 30 µM. Moreover, the TGI in test [7] came out at 15.2 µM; in test [8], 13.2 µM; in [9], 28.6 µM; in test [10], 12.2 µM.

Regarding `COC1CCC(O)C(/C=C/[N+](=O)[O-])C1` (stereo not given), the TGI was determined as 8.49 µM in test [1]; 4.58 µM in [2]; 19.1 µM in [3]; 7.73 µM in [4]; 75.1 µM in test [5]; 21.5 µM in test [6]. Also, the TGI in test [7] stood at 16.6 µM; in test [8] it was 23.1 µM; in test [9] it was 21.5 µM; in [10] it was 8.04 µM.

For the origin of these results see PubChem BioAssay (NCI).
